Key:
786-O cells = experiment: Cellular toxicity at IC50 concentrations; format: cell-based, human
HIF-2a = HIF-2a protein stability (cycloheximide, 35S-methionine pulse chase); format: cell-based, human; conditions: 786-O cells; for HIF-2a protein stability after cycloheximide: 10 μg/mL cycloheximide
Procedure: Cells were treated with medium only, DMSO, or compound as described for western blots. Following the second day of compound incubation, 10 μg/mL cycloheximide (CHx) was added to halt de novo protein synthesis and time points were taken. Protein quantification and Western blots were performed as described.
Cells were treated with medium only, DMSO, or compound as described for western blots. Following the second day of treatment, cells were washed twice in PBS and then placed into medium only, DMSO, or labeling medium (methionine minus DMEM supplemented with 1× glutamine and 5% dialyzed FBS) and pulse-labeled for 30 minutes at 37° C. with 0.5 mCi ^35S-Methionine (New England Nuclear) per p100 plate. Cells were washed twice in PBS and lysed with RIPA buffer supplemented with protease inhibitors. […] In the case of the pulse-chase experiment, two identically treated plates were placed into chasing medium (DMEM supplemented with 10% Fetal Clone I, 1× Glutamine and 3 mg/mL methionine), placed back into the 37° C. incubator and harvested after 1.5 and 3 hours. Immunoprecipitated samples were subjected to SDS-PAGE, enhanced in sodium salicylate, dried and exposed for 2-3 days before the film was quantified by densitometry.
(§1) Quantitative RT-PCR was performed on total RNA harvested from 7H4 cells treated with medium only, DMSO or compound. […] To test whether the compounds alter HIF-2a stability, the inventors assessed protein half-life following the addition of cycloheximide in compound versus DMSO-only treated cells (see FIG. 10).

[1] = test system: iron (Fe-(EDHB)3 complex); experiment: In vitro iron competition assay; conditions: 0-200 micromolars, absorbance at 500 nm
Procedure: This assay was performed similarly to that described previously (Wang et al., 2002). Briefly, displacement of iron from ethyl-3,4-dihydroxybenzoate (EDHB) complex was measured as a decrease in absorbance at 500 nm. Ferric iron, prepared as a 5 mM stock solution of FeC13 in 100 mM sodium citrate, was diluted to 25 μM in the presence of 750 μM EDHB. 1 ml aliquots of this solution were then mixed with 0, 25, 50, 100 or 200 micromolars of compounds 40, 41, 76, and 77 as well as EDTA and DFO for controls. […] The self absorbance of compound 41 in a matched solution lacking Fe-(EDHB)3 was subtracted from the A500 value obtained in the presence of the Fe-(EDHB)3 complex.
The inventors next directly tested whether the compounds bind iron by performing a competition assay in which the displacement of iron from ethyl-3,4-dihydroxybenzoate (EDHB), a weakly chelating ester, was measured as a decrease in absorbance at 500 nm. […] In addition, the inventors utilized the Connectivity Map to look for similarities between the induced gene expression signatures of low and high dose DFO and compound treated cells (Lamb et al., 2006). Using this bioinformatic approach, the inventors discovered no significant similarity between the gene expression profile of the compounds and low (chelating) DFO dose, while there was a negative correlation between compound effect and high (HIF stabilizing) DFO dose (see FIG. 13).

HUVEC = HUVEC proliferation assay; format: cell-based, human; conditions: conditioned supernatant from compound-treated 786-O cells
Procedure: HUVEC cells were plated in a 96 well plate in HUVEC minimal medium (Chembrex, EBM-2). 24 hours later, medium was replaced with a 1:4 mix of tissue culture medium that had been conditioned from compound or DMSO-only treated 786-O cells and HUVEC minimal medium. HUVEC proliferation was quantified by a colorimetric proliferation assay (WST-1, Roche, Germany).
Conditioned tissue culture medium from compound-treated 786-O cells was tested for its ability to induce human umbilical vein endothelial cell (HUVEC) proliferation.

HIF-2a mRNA = experiment: qRT-PCR for HIF-2a mRNA expression; format: cell-based, human; conditions: 786-O derived cells, qRT-PCR normalized to B2M
Procedure: as §1, with “ID NO: 1) and [NT] […] ID NO: 3) and [NT] ID NO: 4) for […] ID NO: 5) and [NT] ID NO: 6) for Transferrin Receptor 1 ([…] ID NO: 7) and [NT] ID NO: 8) for […] ID NO: 9) and [NT] ID NO: 10) for […] ID NO. 11) and [NT] ID NO: 12) for EGLN3. […] ID NO: 13) and [NT] ID NO: 14). Quantitative” for “Quantitative”

SMILES	cellular toxicity (786-O cells)	HIF-2a protein stability by 35S-methionine pulse chase (HIF-2a)	HIF-2a protein stability after cycloheximide (HIF-2a)	displacement of iron from EDHB complex (iron chelation) [1]	angiogenic activity of renal carcinoma cell supernatant (HUVEC proliferation) (HUVEC)	HIF-2a mRNA expression (HIF-2a mRNA)
C/C(=C\c1ccccc1)C(=O)CCN(C)C.Cl [Compound 40, 5-(dimethylamino)-2-methyl-1-phenyl-1-penten-3-one hydrochloride]	comparative lack of cellular toxicity at IC50 concentrations	have no affect on HIF-2a protein stability	no compound of 40, 41, 76 and 77 significantly affects HIF-2a stability	are not iron chelators	decrease the angiogenic activity of renal carcinoma cell supernatant	do not effect HIF-2a mRNA expression
COc1ccc(O)c(/C=C/C(=O)c2c(O)cc(C)oc2=O)c1 [Compound 41, 4-hydroxy-3-[3-(2-hydroxy-5-meoxyphenyl)acryloyl]-6-methyl-2H-pyran-2-one]	comparative lack of cellular toxicity at IC50 concentrations	have no affect on HIF-2a protein stability	no compound of 40, 41, 76 and 77 significantly affects HIF-2a stability	are not iron chelators	decrease the angiogenic activity of renal carcinoma cell supernatant	do not effect HIF-2a mRNA expression
COC(=O)c1sccc1N/N=C(/C#N)S(C)(=O)=O [Compound 76, methyl 3-{2-[cyano(methylsulfonyl)methylene] hydrazino}thiophene-2-carboxylate]	comparative lack of cellular toxicity at IC50 concentrations	have no affect on HIF-2a protein stability	no compound of 40, 41, 76 and 77 significantly affects HIF-2a stability	are not iron chelators	decrease the angiogenic activity of renal carcinoma cell supernatant	do not effect HIF-2a mRNA expression
CC1(C)CC(=O)C=C(Sc2ccc(C#N)cc2[N+](=O)[O-])S1 [Compound 77, 4-[(2,2-dimethyl-4-oxo-3,4-dihydro-2H-thiin-6-yl)thio]-3-nitrobenzonitrile]	comparative lack of cellular toxicity at IC50 concentrations	have no affect on HIF-2a protein stability	no compound of 40, 41, 76 and 77 significantly affects HIF-2a stability	are not iron chelators	decrease the angiogenic activity of renal carcinoma cell supernatant	do not effect HIF-2a mRNA expression
CCCCC/C=C/C=C1/C(=O)C=C[C@@H]1C/C=C\CCCC(=O)O [PGJ2, 15-deoxy-Δ^12,14-prostaglandin J2]			no indication that PGJ2 affects HIF2a protein half-life	not an iron chelator		no concomitant decrease in HIF2a mRNA expression

— patent US10881656B2, “HIF inhibitors and use thereof” (The General Hospital Corporation, priority 2008, dated 2021)
